Test results from paper PMC11815855, “Exploring the Structure–Activity Relationships of Albumin-Targeted Picoplatin-Based Platinum(IV) Prodrugs” (Inorganic Chemistry, 2025).
Marks after values point to notes of the source that are not given here.

Experiments:
[1] = test system: A2780/cis ovarian cancer cells; test: MTT-based cell viability assay, A2780/cis (cisplatin-resistant), 72 h; set-up: species or system human; conditions: for IC50: 72 h drug exposure, cisplatin-resistant subline, means of independent experiments; for IC50 / IC50 in A2780/cis compared to A2780/wt: MTT-based assay; for IC50 in A2780/cis compared to A2780/wt / RF (resistance factor): 72 h; for RF (resistance factor): fold-change between IC50 values of A2780/cis:A2780/wt
Source text: (§1) For the cell culture assays, the human ovarian model A2780/wt and its corresponding cisplatin-resistant subline A2780/cis (both purchased from Sigma and cultured in RPMI1640 medium), the human colorectal cancer model HCT116 (cultured in McCoy′s medium), and the murine (Balb/c) colorectal cancer model CT26 (cultured in DMEM/F-12 (1:1) medium) were used. The colon cancer models were purchased from the American Type Culture Collection (ATCC). The media were supplemented with 10% FCS (purchased from PAA Linz, Austria). To maintain drug resistance of A2780/cis, the subline was cultivated under continuous selection pressure (1 μM cisplatin). The selection drug was removed 1 week before the experiments were performed. Cell cultures were maintained at 37 °C in humidified atmosphere containing 5% CO2. All cultures were free of antibiotics and regularly checked for mycoplasma contamination. All cell culture media and reagents were purchased from Sigma-Aldrich Austria. All investigated drugs were dissolved in either water (oxaliplatin, carboplatin) or DMF before further dilution in cell culture medium. DMF concentrations were always below 0.5%.
(§2) Subsequently, the cells were incubated with the tested compounds in rising concentrations. […] The received data were visualized as dose–response curves by Graph Pad Prism 5 software (Graph Pad software, USA).

[2] = test system: HCT116 colon cancer cells; test: Colony formation (clonogenic) assay, HCT116, 7 days; format: cell-based, human; conditions: 7 days drug exposure, clonogenic assay
Source text: as §1
(§3) Then, cells were exposed to the indicated drugs in rising concentrations. After 7 days, the cells were fixed with methanol for 20 min at 4 °C and stained with crystal violet 5 (0.01% in PBS). The fluorescence of the crystal violet was detected by the Typhoon scanner (Typhoon TRIO Variable Mode Imager, GE Healthcare Life Sciences) after excitation by the red laser (633 nm). Quantification was done with ImageJ software.

[3] = Interaction of platinum(II) complexes with 10 equiv GSH, NMR; format: physicochemical; conditions: 1 mM complex, 10% D2O/90% PBS pH 7.4, 37 °C
Method: The amount of remaining platinum(II) complex was monitored via ^1H NMR spectroscopy and, particularly for ^15N-cisplatin, via [^1H, ^15N] heteronuclear single quantum coherence (HSQC) NMR spectroscopy (Figure 1).[47]
(§4) An 1 mM solution of Pt compound was incubated in a mixture of 90% PB or PBS (150 mM, pH 7.4) and 10% D2O at 37 °C with and without the addition of 10 equiv GSH. The reaction was monitored with ^1H or [^1H, ^15N] […] The reference spectrum was shifted with a value of −0.5 ppm compared to the original ppm value calibrated to D2O before overlay with a spectrum at a single time point. In case of ^15N-cisplatin, the cross-peak of the parental complex in [^1H, ^15N] HSQC at time point 0 h was used as reference, and spectral overlay was achieved by shifting the 2D spectra at all given time points (2, 4, 6, and 8 h) with vertical steps of +14 ppm compared to the original ^15N NMR ppm value of the parental complex.

[4] = test system: HCT116 colon cancer cells; test: MTT-based cell viability assay, HCT116, 72 h; set-up: species or system human; conditions: 72 h drug exposure
Source text: as §1, §2

[5] = Stability of platinum(II) complexes in PBS or PB, NMR; format: physicochemical; conditions: 1 mM, pH 7.4, 37 °C, 8 h incubation, no GSH
Method: as §4

CT26 colon cancer cells [6] = test: Colony formation (clonogenic) assay, CT26, 7 days; format: cell-based, murine; conditions: 7 days drug exposure
Source text: as §1, §3

[7] = test system: A2780/wt ovarian cancer cells; test: MTT-based cell viability assay, A2780/wt, 72 h; set-up: species or system human; conditions: 72 h drug exposure, means of independent experiments
Source text: as §1, §2

CT26 colon cancer cells [8] = test: MTT-based cell viability assay, CT26, 72 h; set-up: species or system murine; conditions: 72 h drug exposure
Source text: as §1, §2

CT26 tumors = test: Anticancer activity in vivo, CT26-bearing Balb/c mice; conditions: i.v. on days 3 and 10, dose equimolar to 20 mg/kg picoplatin
Method: Ten-week-old Balb/c mice were purchased from Envigo Laboratories (San Pietro al Natisone, Italy). […] Animals were controlled for distress development every day, and tumor size was assessed regularly by caliper measurement. Tumor volume was calculated using the formula: (length × width^2)/2.
CT26 cells (5 × 10^5 in serum-free medium) were injected subcutaneously into the right flank of male Balb/c mice. Therapy was started when tumor nodules were palpable (day 3). […] Mice were sacrificed by cervical dislocation in the case of a tumor length >20 mm, tumor ulceration, or other signs for distress.

[9] = Reduction kinetics of platinum(IV)-succinimide complexes with AA, UHPLC; format: physicochemical; conditions: 1 mM, 10 equiv AA, 150 mM PB pH 7.4, 20 °C, 6 h
Method: Platinum(IV) prodrugs need to be reduced in the tumor environment to release the cytotoxic platinum(II) complexes. Thus, the reduction properties of Pico-Succ, PicoCarbo-Succ, and PicoOxali-Succ were investigated. As mentioned above, succinimide complexes were used for these studies to avoid competitive hydrolysis of the maleimide moiety. All platinum(IV)-succinimide complexes were incubated in both the absence and presence of a 10-fold excess L-ascorbic acid (AA) in PB at pH 7.4 and 20 °C over 6 h. The amount of remaining intact platinum(IV) complex at given time points was measured via ultrahigh performance liquid chromatography (UHPLC), as shown in Figure 2. Pico-Succ was reduced extremely fast, with only traces of the original complex left in the first measurement after ∼5 min of incubation. Even with equimolar amounts of AA, 90% of Pico-Succ was already reduced after ∼5 min (Figure S6). This level of reductive instability is exceptionally high, even when compared to the “fast” reducing cisplatin(IV) prodrugs, which show a complete conversion after ∼10 h in the presence of 10 equiv AA.[41],[53]
(§5) PB (150 mM, pH 7.4) containing 1 mM Pt compound was incubated at 20 °C with and without the addition of 10 equiv L-ascorbic acid or reduced GSH. The reaction was monitored on a Thermo Scientific Dionex UltiMate 3000 UHPLC-system using a Waters Acquity UPLC BEH C18 1.7 μm, 3.0 × 50 mm column. Milli-Q water containing 0.1% formic acid and acetonitrile containing 0.1% formic acid were used as eluents. A gradient of 5–95% over 5 min was used with a flow of 0.6 mL/min. To evaluate the reaction process, we used the peak area of the parental complex.

[10] = Reduction of platinum(IV)-succinimide complexes with 10 equiv GSH, UHPLC; format: physicochemical; conditions: 1 mM, 150 mM PB pH 7.4, 20 °C, 6 h
Source text: It is well-known that platinum(IV) complexes derived from, e.g., oxaliplatin or carboplatin, bearing leaving groups other than chlorido ligands, have distinctly slower reduction rates compared to cisplatin(IV) analogs.[54] This can be explained by a bridging interaction between the chlorido ligands and the reducing agent, which facilitates electron transfer to the platinum center.[55] […] The reductive behavior was also investigated in the presence of 10 equiv GSH in coherence with the above investigated interactions of platinum(II) with GSH (Figure S8).
as §5

albumin = albumin (Bos taurus, UniProt P02769); test: Albumin binding and stability in phosphate-buffered FCS, SEC-ICP-MS; conditions: 50 μM in FCS (150 mM PB, pH 7.4), 37 °C, over 25 h; 195Pt only in LMWF
albumin, sequence (P02769 25-607): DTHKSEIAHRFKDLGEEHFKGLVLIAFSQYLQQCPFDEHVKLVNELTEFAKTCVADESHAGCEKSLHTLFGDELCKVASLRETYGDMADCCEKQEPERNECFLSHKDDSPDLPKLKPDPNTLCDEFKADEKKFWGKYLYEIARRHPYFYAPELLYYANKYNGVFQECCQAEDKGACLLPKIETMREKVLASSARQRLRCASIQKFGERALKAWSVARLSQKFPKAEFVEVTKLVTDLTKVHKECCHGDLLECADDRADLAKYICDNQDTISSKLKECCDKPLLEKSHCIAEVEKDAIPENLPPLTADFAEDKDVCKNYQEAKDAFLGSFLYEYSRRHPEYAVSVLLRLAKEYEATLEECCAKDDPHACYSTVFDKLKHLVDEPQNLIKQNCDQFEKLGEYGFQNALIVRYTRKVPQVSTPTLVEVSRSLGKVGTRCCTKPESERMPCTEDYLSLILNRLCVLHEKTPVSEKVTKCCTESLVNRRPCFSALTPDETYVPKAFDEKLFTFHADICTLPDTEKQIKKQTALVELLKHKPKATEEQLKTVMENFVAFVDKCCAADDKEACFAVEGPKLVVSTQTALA
Method: FCS was purchased from Sigma-Aldrich and buffered with 150 mM phosphate pH 7.4 in order to guarantee a stable pH. The platinum(IV) complexes were dissolved in 150 mM PB (pH 7.4) at a concentration of 5 mM and diluted 1:100 in buffered serum to obtain a final concentration of 50 μM. […] Between each sample, a pure water blank was measured. […] Oxygen (purity 5.5, Messer Austria GmbH, Gumpoldskirchen, Austria) was used as the reaction gas.

horse heart CytC = molecular target: T1, horse heart CytC (Equus caballus, UniProt P00004); test: Reduction with cytochrome C and NADH, UHPLC; format: biochemical; conditions: 700 μM, 0.1 equiv CytC and 10 equiv NADH, 50 mM PB pH 6.0, 37 °C
T1 construct: 0.1 equiv horse heart CytC; from tissue; host or cells: horse heart
T1 sequence (P00004 whole entry): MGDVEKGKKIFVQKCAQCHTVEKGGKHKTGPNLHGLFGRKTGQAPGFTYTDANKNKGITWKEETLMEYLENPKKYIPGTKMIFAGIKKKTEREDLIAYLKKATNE
Source text: (§6) To explain the rather unusual in vivo findings, especially with respect to Pico-Mal, we hypothesized that inefficient reductive release of the platinum(II) core from albumin due to steric hindrance of the 2-picoline could provide a plausible explanation for the lack of antitumor activity despite a favorable pharmacokinetic profile. […] To gain insights into whether the molecular weight and thus steric demands of the reducing agent impact the reduction of picoplatin(IV) derivatives, Pico-Succ and the reference complex Cis-Succ were analyzed in the presence of cytochrome C (CytC; ∼12,000 g/mol) or AA (176 g/mol). Therefore, Pico-Succ and Cis-Succ (for synthesis and ^1H NMR characterization, see experimental part and Scheme S1) were coincubated at pH 6.0 with 0.1 equiv CytC[60] and 10 equiv reduced NADH or with 10 equiv AA at 37 °C over 4 h, and the reduction kinetics were compared relatively. The amount of remaining intact platinum(IV) complex at given time points was measured via UHPLC (Figure 6). […]
(§7) PB (50 mM, pH 6.0) containing 700 μM Pt compound was incubated at 37 °C with the addition of 0.1 equiv horse heart CytC and 10 equiv reduced NADH or with 10 equiv L-ascorbic acid. The reaction was monitored on a Thermo Scientific Dionex UltiMate 3000 UHPLC-system using a Waters Acquity UPLC BEH peptide C18 1.7 μm 2.1 × 100 mm column. […]

[11] = Reduction with 10 equiv AA at pH 6.0 and 37 °C, UHPLC; format: physicochemical; conditions: 700 μM, 50 mM PB pH 6.0, 37 °C, 4 h
Source text: as §6, §7

Cc1ccccn1.N.O=C1[O][Pt][O]C(=O)C12CCC2 [PicoCarbo, (SP-4-4)[(Ammine)(cyclobutane-1,1-dicarboxylato)(2-methylpyridine)platinum(II)]]
IC50 [1]: > 100 µM | IC50 [2]: 90 µM | intact platinum(II) complex left after 8 h with GSH ([3]; 8 h, 1H NMR): ~90% | IC50 [4]: > 100 µM | complex left in 10% D2O/90% PBS [5]: > 95% | IC50 (CT26 colon cancer cells [6]): 26.3 µM | IC50 [7]: > 100 µM | IC50 (CT26 colon cancer cells [8]): 74.5 µM

CC(=O)[O][Pt]1([O]C(=O)NCCN2C(=O)C=CC2=O)[O]C(=O)C2(CCC2)C(=O)[O]1.Cc1ccccn1.N [PicoCarbo-Mal, (OC-6-21)[Acetato(ammine)(cyclobutane-1,1-dicarboxylato)(1-(2-isocyanatoethyl)-1H-pyrrole-2,5-dione)(2-methylpyridine)platinum(IV)]]
impact on tumor growth (CT26 tumors): significantly inhibited tumor growth

CC(=O)[O][Pt]1([O]C(=O)NCCN2C(=O)CCC2=O)[O]C(=O)C2(CCC2)C(=O)[O]1.Cc1ccccn1.N [PicoCarbo-Succ, (OC-6-21)[Acetato(ammine)(cyclobutane-1,1-dicarboxylato)(1-(2-isocyanatoethyl)pyrrolidine-2,5-dione)(2-methylpyridine)platinum(IV)]]
IC50 [1]: > 100 µM | IC50 [2]: > 100 µM | IC50 [4]: > 100 µM | intact platinum(IV) complex left after 6 h with AA [9]: ~90% | reduction with 10 equiv GSH over 6 h [10]: no notable reduction | IC50 (CT26 colon cancer cells [6]): > 100 µM | IC50 [7]: > 100 µM | IC50 (CT26 colon cancer cells [8]): > 100 µM

CC(=O)[O][Pt]1([O]C(=O)NCCN2C(=O)CCC2=O)[O]C(=O)C(=O)[O]1.Cc1ccccn1.N [PicoOxali-Succ, (OC-6-21)[Acetato(ammine)(1-(2-isocyanatoethyl)pyrrolidine-2,5-dione)(2-methylpyridine)(oxalato)platinum(IV)]]
IC50 [1]: > 100 µM | IC50 [2]: > 100 µM | albumin conjugation (albumin): no albumin conjugation | IC50 [4]: > 100 µM | intact platinum(IV) complex left after 6 h with AA [9]: ~70% | reduction with 10 equiv GSH over 6 h [10]: no notable reduction | IC50 (CT26 colon cancer cells [6]): > 100 µM | IC50 [7]: > 100 µM | IC50 (CT26 colon cancer cells [8]): > 100 µM

Cc1ccccn1.N.O=C1[O][Pt][O]C1=O [PicoOxali]
IC50 in A2780/cis compared to A2780/wt [1]: 1.4 fold | IC50 [1]: 46 µM | RF (resistance factor) [1]: 1.4^ns | IC50 [2]: 15.8 µM | IC50 [4]: > 100 µM | complex left in 10% D2O/90% PB [5]: > 90% | complex left in 10% D2O/90% PBS [5]: readily degraded | IC50 (CT26 colon cancer cells [6]): 7.26 µM | IC50 [7]: 33.4 µM | IC50 (CT26 colon cancer cells [8]): 33.7 µM

[15NH3].[15NH3].[Cl][Pt][Cl] [^15N-cisplatin, cis-[PtCl2(^15NH3)2]]
platinum(II) complex left after 2 h with GSH ([3]; 2 h, [1H,15N] HSQC NMR): ~20% | platinum(II) complex reacted with GSH after 4 h ([3]; 4 h): nearly complete reaction | complex left in 10% D2O/90% PBS [5]: > 95%

N.N.[Cl][Pt][Cl] [cisplatin, reference compound]
IC50 in A2780/cis compared to A2780/wt [1]: 5.1 fold | IC50 [1]: 7.81 µM | RF (resistance factor) [1]: 5.1**** | IC50 [2]: 0.82 µM | IC50 [4]: 3.15 µM | IC50 (CT26 colon cancer cells [6]): 0.46 µM | IC50 [7]: 1.54 µM | IC50 (CT26 colon cancer cells [8]): 2.17 µM

(OC-6-44)[Acetatodiamminedichlorido[2-(2,5-dioxopyrrolidin-1-yl)butyl)carbamato]platinum(IV)] [Cis-Succ, reference compound]
time to complete reduction with CytC (horse heart CytC): 4 h | reduction with AA after 4 h [11]: ~40%
